Values quoted from earlier work as cited in patent US10881750B2, “Sentinel lymph node marker capable of multi-mode imaging” (NATIONAL CANCER CENTER, priority 2010, dated 2021).

Conditions: 18 breast cancer patients, clinical trials (Kitai et al., Breast Cancer 2005)

SMILES: CC1(C)C(/C=C/C=C/C=C/C=C2\N(CCCCS(=O)(=O)O)c3ccc4ccccc4c3C2(C)C)=[N+](CCCCS(=O)(=O)[O-])c2ccc3ccccc3c21 [indocyanine green]
- safety in clinical use: safe to use
